We go through one compound from patent EP3570868B1, “[…] ANTIMICROBIAL PEPTIDES AND THEIR APPLICATIONS FOR THE TREATMENT AND PREVENTION OF MUSCU[…]” (Ustav Organicke Chemie a Biochemie AV CR, v.v.i., priority 2017, dated 2018).

The test system of data set [1] is Bacillus subtilis. The format is cell-based. Conditions: B.s.; 37° C for 20 h. The method in brief:
(§1)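 Exponential-phase cultures, diluted in fresh medium (BHI for E. faecalis, LB for the others), were added to peptides in LB at final 0.5 to 100 µmol.l^-1, ca 10^5 CFU per well. Plates were shaken at 37 °C for 20 h with A540 read every 15 min; MIC was taken from growth.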

For data set [2], the system named is Candida albicans. It is filed as cell-based. The note with it: C.a.; 37° C for 20 h.
Data set [3] deals with Escherichia coli. The format is cell-based. Conditions: E.c.; 37° C for 20 h. The method in brief:
as §1

Data set [4] concerns MRSA (clin. isolate Liberec). It is filed as cell-based, Staphylococcus aureus. Conditions: 37° C for 20 h. In a few lines: as §1
The test system of data set [5] is MRSA (clin. isolate Motol). The format is cell-based, Staphylococcus aureus. Conditions: 37° C for 20 h. In a few lines: (§2)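 Broth microdilution with ca 10^5 CFU per well and peptides at final 0.5–100 µmol/l, tetracycline as standard. Plates shaken at 37 °C for 20 h with A540 read every 15 min; MIC taken from growth curves. MRSA 6271 and P. aeruginosa 5482 from the Czech national collection; other isolates clinical, from Motol.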

The subject of data set [6] is MRSA 6271. It is filed as cell-based, Staphylococcus aureus. The note with it: 37° C for 20 h. In a few lines:
as §2

Data set [7] deals with S.e. (clin. isolate Motol). It is filed as cell-based, Staphylococcus epidermidis. The note with it: 37° C for 20 h. In a few lines:
as §2

Data set [8] deals with E.f. (clin. isolate Motol). The format is cell-based, Enterococcus faecalis. Conditions: 37° C for 20 h. In a few lines:
as §2

Data set [9] deals with P.a. (clin. isolate Liberec). The format is cell-based, Pseudomonas aeruginosa. Conditions: 37° C for 20 h. In a few lines:
as §1

Data set [10] has as its system P.a. 5482. It is filed as cell-based, Pseudomonas aeruginosa. Conditions: 37° C for 20 h. In a few lines:
as §2

For data set [11], the system named is human red blood cells. As to the kind of experiment: Determination of haemolytic activity. It is filed as cell-based. The note with it: human red blood cells (5% v/v), 1 h at 37 °C; concentration for lysis of 50% of erythrocytes. In a few lines:
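Peptides at 2-400 µmol.1^-1 were incubated with 5% v/v human erythrocytes in physiological solution for 1 h at 37 °C; haemoglobin release measured as supernatant absorbance at 540 nm after centrifugation, with 0.2% Triton X-100 as 100% lysis. Reported as LC50, the concentration lysing 50% of cells.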

In data set [12] the test system is Candida albicans (clin. isolate Olomouc). As to the kind of experiment: Biofilm formation on the surface of a bone cement implant in femur heads. The format is cell-based. The note with it: two days, cement without peptide 8.0x10^4.
Method: (§3) The resulting elastic paste is placed into a 2 ml plastic syringe (without needle) and pressed into the infected holes in the spongy part of the bone, where it polymerizes and hardens. For comparison, other similarly infected holes are filled with cement containing only an antibiotic or antimycotic agent. For comparison, a Vancogenx® cement (Tecresa S. p. A., Italy) is used, made from a mixture of a powdered polymer component containing vancomycin and gentamicin. The mixture in an amount of 125 mg is mixed with liquid monomer (50-60 µl) and then pressed into the openings as described above. In another embodiment, the cements are applied to uninfected holes, allowed to harden, and then microbes are pipetted into the hole excavated between implants. From there they penetrate through bone tissue and settle on the implants with consequent formation of biofilms.
After two days, implants are removed with metal spikes and tweezers, mechanically cleaned from debris of bone tissue, and washed four times with physiological saline (0.5 ml) in plastic tubes to remove any residual planktonic microbes or bone cells from their surface. The implants in closed tubes with 0.4 ml saline are then sonicated four times for 3 min with occasional shaking. The of microbial biofilm on the surface of the implant is thus disrupted and microbes are loosed into the physiological saline. The resulting suspension is subsequently diluted using the tenfold serial dilution for culturing on agar.
Evaluation of the effect of antimicrobial peptides on the formation of microbial biofilm on the surface of the implant made of the bone cement.
Data set [13] concerns Candida albicans ATCC MYA-2876. Described as above. Conditions: two days, cement without peptide 4.4x10^5. The format is cell-based.
Method: The resulting elastic paste is placed into a 2 ml plastic syringe (without needle) and pressed into the infected holes in the spongy part of the bone, where it polymerizes and hardens. For comparison, other similarly infected holes are filled with cement containing only an antibiotic or antimycotic agent. […] The mixture in an amount of 125 mg is mixed with liquid monomer (50-60 µl) and then pressed into the openings as described above. In another embodiment, the cements are applied to uninfected holes, allowed to harden, and then microbes are pipetted into the hole excavated between implants. From there they penetrate through bone tissue and settle on the implants with consequent formation of biofilms.
After two days, implants are removed with metal spikes and tweezers, mechanically cleaned from debris of bone tissue, and washed four times with physiological saline (0.5 ml) in plastic tubes to remove any residual planktonic microbes or bone cells from their surface. The implants in closed tubes with 0.4 ml saline are then sonicated four times for 3 min with occasional shaking. The of microbial biofilm on the surface of the implant is thus disrupted and microbes are loosed into the physiological saline. The resulting suspension is subsequently diluted using the tenfold serial dilution for culturing on agar. […]
The subject of data set [14] is Candida glabrata DSY565. The data set is described as above. Conditions: two days, cement without peptide 1.3x10^6. It is filed as cell-based.
Method: as §3
After two days, implants are removed with metal spikes and tweezers, mechanically cleaned from debris of bone tissue, and washed four times with physiological saline (0.5 ml) in plastic tubes to remove any residual planktonic microbes or bone cells from their surface. The implants in closed tubes with 0.4 ml saline are then sonicated four times for 3 min with occasional shaking. The of microbial biofilm on the surface of the implant is thus disrupted and microbes are loosed into the physiological saline. […]
The subject of data set [15] is Candida albicans yeast (clinical isolate Olomouc). Briefly: Comparison of two similar halictin peptides for biofilm formation on the implant surface (yeast pipetted into a hole between implants). The format is cell-based. The note with it: 3.5 mg peptide in 100 mg powder cement component; two days; implant without peptide 1.8 × 10^3. The procedure:
The experiment was performed under similar conditions as described in Example 5. Here, 100 mg of the powder cement component was used to prepare a paste, which was mixed with in 3.5 mg of peptide XIII and subsequently 52 µl of liquid component. The resulting paste was thoroughly mixed and then pressed into a hole prepared in the spongy part of the bone. To a next hole in the spongy part of the same bone a paste was pressed, containing comparative peptide Hal 2/4 (3.5 mg) with the sequence H-[…]NH2, which was also prepared from 100 mg of the powder component and 52 µl of the liquid component. The third hole was filled with paste without peptide prepared from the same amount of components. The Candida albicans yeast (clinical isolate Olomouc), grown in YPG, was pipetted in the hole excavated between implants equidistant (approximately 1 cm) from each. From there, the yeast penetrated through the bone tissue and was deposited on the implant with consequent formation of biofilms.
Then the implants in closed tubes with 0.4 ml of saline were treated ultrasonically four times for three minutes with occasional shaking. This way, microbial biofilm on the surface of the implant was disrupted and microbes loosed into the physiological saline. The resulting suspension was then diluted in a decimal dilution series for culturing on agar. […]

As for `CC[C@H](C)[C@H](NC(=O)[C@H](CCCCN)NC(=O)[C@H](CCCCN)NC(=O)[C@@H](CC(C)C)NC(=O)[C@H](CC(C)C)NC(=O)[C@H](CCCCN)NC(=O)[C@H](CCSC)NC(=O)[C@H](Cc1c[nH]c2ccccc12)NC(=O)[C@H](CCCCN)NC(=O)CN)C(=O)N[C@@H](CC(C)C)C(=O)N[C@@H](CCCCN)C(N)=O` [XIII], the “Antimicrobial activity MIC” value in [1] is reported as 2,8 µmol.l^-1; in data set [2] it was 8,0 µmol.l^-1; in data set [3], 10,0 µmol.l^-1; in data set [4], 13,3 µmol.l^-1; in data set [5], 32,0 µmol.l^-1; in data set [6] it was 18,7 µmol.l^-1. Also, the “Antimicrobial activity MIC” value in data set [7] was 4,0 µmol.l^-1; in data set [8], >100 µM; in data set [9], 32,0 µmol.l^-1; in [10], 5,0 µmol.l^-1. Moreover, in [11], the “Hemolytic activity LC50” value was >400 µM. In addition, the results for the CFU/implant in data set [12], in data set [13] and in data set [14] were 0 CFU/implant, 6.0x10^3 CFU/implant and 2.4x10^3 CFU/implant, respectively. Besides, the “number of colonies from the surface of the implant” value in [15] is “zero”.
